Source: US11498896B2 (The Broad Institute, Inc., priority 2014, dated 2022)
pEC50, pIC50, pKi: −log10 of the molar value.

Tests used:
D2 receptor = D2 receptor (Homo sapiens (Human), UniProt P14416); assay: D2 radioligand binding assay
human D2R/β-arrestin [1] = target: T1, human D2R/β-arrestin (Homo sapiens (Human), UniProt P14416); assay: cell-based; settings: β-arrestin Antagonist
human D2R/β-arrestin [2] = target: T1, human D2R/β-arrestin; assay: Gi/cAMP agonist assay (Lance Ultra cAMP, forskolin); format: cell-based; settings: CHO-K1 cells expressing human D2R/β-arrestin; agonist mode, 2.5 μM forskolin
Description: Eu-cAMP tracer solution (10 μl, PerkinElmer, 360 μl of Tracer in 17.64 ml kit buffer) and ULight-anti-cAMP solution (10 μl, 120 μL antibody in 17.88 ml kit buffer) was then added to each well.

human D2R/β-arrestin [3] = target: T1, human D2R/β-arrestin; assay: β-arrestin agonist assay (PathHunter); format: cell-based; settings: CHO-K1 cells expressing human D2R/β-arrestin; agonist mode
Description: The detection reagent (9.6 μL, Buffer:Emerald II:Galactor-Star in a 19:5:1 ratio, i.e., 14.06 mL:3.7 mL:0.74 mL=18.5 mL) was then added to the agonist plates.

human D2R/β-arrestin [4] = target: T1, human D2R/β-arrestin; assay: cell-based; settings: cAMP Antagonist
human D2R/β-arrestin [5] = target: T1, human D2R/β-arrestin; settings: CHO-K1 cells expressing human D2R/β-arrestin; antagonist mode, quinpirole 130 nM
[6] = CHO-K1 cells expressing human D2R/β-arrestin, antagonist mode, quinpirole 130 nM
[7] = CHO-K1 cells expressing human D2R/β-arrestin, antagonist mode, 2.5 μM forskolin and 2.7 nM quinpirole

D2 receptor, sequence (P14416 whole entry): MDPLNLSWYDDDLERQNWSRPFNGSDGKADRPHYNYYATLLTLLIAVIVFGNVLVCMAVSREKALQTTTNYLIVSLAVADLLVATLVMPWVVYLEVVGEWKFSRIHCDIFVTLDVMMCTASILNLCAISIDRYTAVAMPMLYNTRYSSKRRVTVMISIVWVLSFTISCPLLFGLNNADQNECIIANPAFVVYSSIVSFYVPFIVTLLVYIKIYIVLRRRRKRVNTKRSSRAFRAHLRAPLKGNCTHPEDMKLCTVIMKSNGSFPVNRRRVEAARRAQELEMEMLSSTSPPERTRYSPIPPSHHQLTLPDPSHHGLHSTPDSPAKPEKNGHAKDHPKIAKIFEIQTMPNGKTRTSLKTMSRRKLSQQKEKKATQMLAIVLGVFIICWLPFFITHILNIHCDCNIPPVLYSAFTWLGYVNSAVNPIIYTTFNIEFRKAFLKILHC
T1 sequence (P14416 whole entry): as above

Compound	pKi (D2 receptor)	pIC50 (human D2R/β-arrestin [1]; [6])	pEC50 (human D2R/β-arrestin [2])	pEC50 (human D2R/β-arrestin [3])	pIC50 (human D2R/β-arrestin [4]; [7])	pIC50 (human D2R/β-arrestin [1])	pIC50 (human D2R/β-arrestin [4])	β-arrestin Agonist (human D2R/β-arrestin [3])	β-arrestin Antagonist (human D2R/β-arrestin [5])
CC1(Oc2ccc(Cl)cc2)CCN(CCOc2ccccc2)C1 (stereo not shown) [Compound 1, 3-(4-chlorophenoxy)-3-methyl-1-(2-phenoxyethyl)pyrrolidine]	5.00 to 6.00	5.00 to 6.00	> 7.00	< 4.52	< 4.52				
CC1(Oc2ccc(Cl)cc2)CCN(CCn2ccccc2=O)C1 (stereo not shown) [Compound 7, 1-(2-(3-(4-chlorophenoxy)-3-methylpyrrolidin-1-yl)ethyl)pyridin-2(1H)-one]	4.52 to 5.00	< 4.52	< 4.52	< 4.52	< 4.52				
CC1(Oc2ccc(Cl)cc2)CCN(CCCCOc2ccccc2F)C1 (stereo not shown) [Compound 27, 3-(4-chlorophenoxy)-1-(4-(2-fluorophenoxy)butyl)-3-methylpyrrolidine]	6.00 to 7.00	5.00 to 6.00	< 4.52	< 4.52	6.00 to 7.00				
CC1(Oc2ccc(Cl)cc2)CCN(CCOc2cc(F)ccc2C(F)(F)F)CC1 [Compound 122, 4-(4-Chlorophenoxy)-1-(2-(5-fluoro-2-(trifluoromethyl)phenoxy)ethyl)-4-methylpiperidine]	6.00 to 7.00	6.00 to 7.00	> 7.00	< 4.52	< 4.52				
COC1(C)CCN(CCOc2ccccc2C(F)(F)F)CC1 [Compound 123, 4-methoxy-4-methyl-1-(2-(2-(trifluoromethyl)phenoxy)ethyl) piperidine]	> 7.00	6.00 to 7.00	< 4.52	< 4.52	6.00 to 7.00				
FC(F)(F)c1ccccc1OCCN1CCC2(CCCN2c2ccc(Cl)cc2)CC1 [Compound 135, 1-(4-Chlorophenyl)-8-(2-(2-(trifluoromethyl)phenoxy)ethyl)-1,8-diazaspiro[4.5]decane]	> 7.00	> 7.00	< 4.52	< 4.52	> 7.00				
Fc1ccccc1OCCN1CCC2(CC1)CCN2c1ccc(Cl)cc1 [Compound 137, 1-(4-chlorophenyl)-7-(2-(2-fluorophenoxy)ethyl)-1,7-diazaspiro[3.5]nonane]	> 7.00	> 7.00	< 4.52	< 4.52	> 7.00				
CC1(O)CCN(CC2COc3ccccc3O2)CC1 (stereo not shown) [Compound 140, 1-((2,3-dihydrobenzo[b][1,4]dioxin-2-yl)methyl)-4-methylpiperidin-4-ol]	4.52 to 5.00	6.00 to 7.00	> 7.00	5.00 to 6.00	< 4.52				
Clc1ccc2c(c1)CC1(CCN(CCOc3ccccc3)C1)O2 (stereo not shown) [Compound 144, 5-chloro-1′-(2-phenoxyethyl)-3H-spiro[benzofuran-2,3′-pyrrolidine]]	6.00 to 7.00	5.00 to 6.00	< 4.52	< 4.52	6.00 to 7.00				
CC1(Oc2ccccn2)CCN(CCOc2ccc(C(F)(F)F)cc2)CC1 [Compound 164, 2-((4-methyl-1-(2-(4-(trifluoromethyl)phenoxy)ethyl)piperidin-4-yl)oxy)pyridine]	4.52 to 5.00	4.52 to 5.00	6.00 to 7.00	< 4.52	< 4.52				
CN(C)C(=O)C1(C)CCN(C[C@H]2COc3ccccc3O2)CC1 [Compound 205, (S)-1-((2,3-dihydrobenzo[b][1,4]dioxin-2-yl)methyl)-N,N,4-trimethylpiperidine-4-carboxamide]	6.00 to 7.00	6.00 to 7.00	> 7.00	6.00 to 7.00	< 4.52				
CC1(C(=O)N2CCCC2)CCN(C[C@H]2COc3ccccc3O2)CC1 [Compound 206, (S)-(1-((2,3-dihydrobenzo[b][1,4]dioxin-2-yl)methyl)-4-methylpiperidin-4-yl)(pyrrolidin-1-yl)methanone]	6.00 to 7.00	> 7.00	> 7.00	> 7.00	< 4.52				
CC(=O)NC1(C)CCN(C[C@H]2COc3ccccc3O2)CC1 [Compound 208, (S)—N-(1-((2,3-dihydrobenzo[b][1,4]dioxin-2-yl)methyl)-4-methylpiperidin-4-yl)acetamide]	6.00 to 7.00	> 7.00	> 7.00	6.00 to 7.00	< 4.52				
CC1(NC(=O)C2CC2)CCN(C[C@H]2COc3ccccc3O2)CC1 [Compound 209, (S)—N-(1-((2,3-dihydrobenzo[b][1,4]dioxin-2-yl)methyl)-4-methylpiperidin-4-yl)cyclopropanecarboxamide]	6.00 to 7.00	> 7.00	> 7.00	< 4.52	< 4.52				
CC(=O)NC1(C)CCN(C[C@H]2COc3ccc(F)cc3O2)CC1 [Compound 210, (S)—N-(1-((7-fluoro-2,3-dihydrobenzo[b][1,4]dioxin-2-yl)methyl)-4-methylpiperidin-4-yl)acetamide]	6.00 to 7.00	6.00 to 7.00	> 7.00	6.00 to 7.00	< 4.52				
CC(=O)NC1(C)CCN(C[C@H]2COc3ccc(Br)cc3O2)CC1 [Compound 211, (S)—N-(1-((7-bromo-2,3-dihydrobenzo[b][1,4]dioxin-2-yl)methyl)-4-methylpiperidin-4-yl)acetamide]	> 7.00	> 7.00	< 4.52	< 4.52	> 7.00				
CC1(Oc2ccc(C(F)(F)F)cc2)CCN(CCOc2ccccc2)C1 (stereo not shown) [Example 54, 3-methyl-1-(2-phenoxyethyl)-3-(4-(trifluoromethyl)phenoxy)pyrrolidine]	5.00 to 6.00	5.00 to 6.00	6.00 to 7.00	< 4.52	4.52 to 5.00				
CC1(Oc2cccc(C(F)(F)F)c2)CCN(CCOc2ccccc2)C1 (stereo not shown) [Example 55, 3-methyl-1-(2-phenoxyethyl)-3-(3-(trifluoromethyl)phenoxy)pyrrolidine]	5.00 to 6.00	5.00 to 6.00	> 7.00	< 4.52	< 4.52				
CC1(Oc2ccncc2)CCN(CCOc2ccccc2)C1 (stereo not shown) [Example 59, 4-((3-methyl-1-(2-phenoxyethyl)pyrrolidin-3-yl)oxy)pyridine]	5.00 to 6.00	< 4.52	> 7.00	4.52 to 5.00	< 4.52				
CC1(Oc2ccccc2)CCN(CCOc2ccc(C(F)(F)F)cc2)CC1 [Example 68]	6.00 to 7.00	< 4.52	> 7.00	< 4.52	< 4.52				
CC1(Oc2ccccc2)CC2CCC(C1)N2CCOc1ccccc1C(F)(F)F (stereo not shown) [Example 78, 3-Methyl-3-phenoxy-8-(2-(2-(trifluoromethyl)phenoxy)ethyl)-8-azabicyclo[3.2.1]octane]	6.00 to 7.00		4.52 to 5.00	< 4.52		6.00 to 7.00	5.00 to 6.00		
CC1(Oc2ccc(Cl)cc2)CCN(CCOc2ccccc2F)CC1 [Example 86, 4-(4-chlorophenoxy)-1-(2-(2-fluorophenoxy)ethyl)-4-methylpiperidine]	> 7.00	< 4.52	> 7.00	> 7.00	< 4.52				
CC1(Oc2ccccc2)CCN(CCOc2ccccc2C(F)(F)F)CC1 [Example 91, 4-methyl-4-phenoxy-1-(2-(2-(trifluoromethyl)phenoxy)ethyl)piperidine]	6.00 to 7.00	> 7.00	> 7.00	< 4.52	< 4.52				
CC1(Oc2ccc(Cl)cc2)CCCN(CCOc2ccccc2)C1 (stereo not shown) [Example 96, 3-(4-chlorophenoxy)-3-methyl-1-(2-phenoxyethyl)piperidine]	6.00 to 7.00	6.00 to 7.00	< 4.52	< 4.52	> 7.00				
CC1(Oc2ccc(Cl)cc2)CCCN(CCOc2ccc3scnc3c2)C1 (stereo not shown) [Example 99, 5-(2-(3-(4-chlorophenoxy)-3-methylpiperidin-1-yl)ethoxy)benzo[d]thiazole]	6.00 to 7.00	6.00 to 7.00	< 4.52	< 4.52	> 7.00				
CC1(C(=O)c2ccccc2)CCN(CCOc2ccccc2C(F)(F)F)CC1 [Example 106, (4-Methyl-1-(2-(2-(trifluoromethyl)phenoxy)ethyl)piperidin-4-yl) (phenyl)methanone]	> 7.00	6.00 to 7.00	< 4.52	< 4.52	> 7.00				
CC1(Oc2ccccc2)CCN(CCOc2ccccc2OC(F)(F)F)CC1 [Example 110, 4-methyl-4-phenoxy-1-(2-(2-(trifluoromethoxy)phenoxy)ethyl) piperidine]	> 7.00	6.00 to 7.00	> 7.00	< 4.52	< 4.52				
CN(c1ccccc1)C1(C)CCN(CCOc2ccccc2C(F)(F)F)CC1 [Example 112]	6.00 to 7.00		6.00 to 7.00	< 4.52		6.00 to 7.00	< 4.52		
Clc1cccc(C2CCN(CCCOc3ccc4scnc4c3)CC2)c1Cl [UNC9994, reference compound]								B or C	B or C
